Results on 24 molecules are retold here after US20080167314A1, “Condensed Imidazole Compound And Use Thereof” (priority 2004, published 2008).

SMILES strings stand for the structures.

By melting point is commonly meant the temperature of the solid-liquid transition. As to `COc1ccc(C(=O)Nc2cc(-c3c(-c4ccc(F)c(C)c4)nc4cccnn34)ccn2)c(C)c1` [Example 42-18, N-{4-[2-(4-fluoro-3-methylphenyl)imidazo[1,2-b]pyridazin-3-yl]pyridin-2-yl}-4-methoxy-2-methylbenzamide], the melting point was 200 to 202 °C. In turn, `Cc1cc(-c2nc3cccnn3c2-c2ccnc(NC(=O)c3ccc4ccccc4c3)c2)ccc1F` [Example 42-19, N-{4-[2-(4-fluoro-3-methylphenyl)imidazo[1,2-b]pyridazin-3-yl]pyridin-2-yl}-2-naphthamide] registered a melting point of 187 to 188 °C. For `Cc1cc(-c2nc3cccnn3c2-c2ccnc(NC(=O)c3cccc4ccccc34)c2)ccc1F` [Example 42-20, N-{4-[2-(4-fluoro-3-methylphenyl)imidazo[1,2-b]pyridazin-3-yl]pyridin-2-yl}-1-naphthamide] the value was 252 to 253 °C. The same measure for `Cc1cc(-c2nc3cccnn3c2-c2ccnc(NC(=O)c3ccc(Cl)nc3)c2)ccc1F` [Example 42-24, 6-chloro-N-{4-[2-(4-fluoro-3-methylphenyl)imidazo[1,2-b]pyridazin-3-yl]pyridin-2-yl}nicotinamide]: 225 to 226 °C. The same measure for `Cc1cc(-c2nc3cccnn3c2-c2ccnc(NC(=O)c3ccnc(Cl)c3)c2)ccc1F` [Example 42-25, 2-chloro-N-{4-[2-(4-fluoro-3-methylphenyl)imidazo[1,2-b]pyridazin-3-yl]pyridin-2-yl}isonicotinamide]: 224 to 225 °C. Molecule `Cc1cc(-c2nc3cccnn3c2-c2ccnc(NC(=O)c3ccc(C(F)(F)F)nc3)c2)ccc1F` [Example 42-26, N-{4-[2-(4-fluoro-3-methylphenyl)imidazo[1,2-b]pyridazin-3-yl]pyridin-2-yl}-6-(trifluoromethyl)nicotinamide] registered a melting point of 225 to 226 °C. `Cc1cc(-c2nc3cccnn3c2-c2ccnc(NC(=O)c3cncc(Cl)c3)c2)ccc1F` [Example 42-28, 5-chloro-N-{4-[2-(4-fluoro-3-methylphenyl)imidazo[1,2-b]pyridazin-3-yl]pyridin-2-yl}nicotinamide] registered a melting point of 252 to 254 °C. `Cc1cc(-c2nc3cccnn3c2-c2ccnc(NC(=O)c3cccnc3C)c2)ccc1F` [Example 42-29, N-{4-[2-(4-fluoro-3-methylphenyl)imidazo[1,2-b]pyridazin-3-yl]pyridin-2-yl}-2-methylnicotinamide] showed a melting point of 258 to 259 °C.

The molecule `Cc1cncc(C(=O)Nc2cc(-c3c(-c4ccc(F)c(C)c4)nc4cccnn34)ccn2)c1` [Example 42-30, N-{4-[2-(4-fluoro-3-methylphenyl)imidazo[1,2-b]pyridazin-3-yl]pyridin-2-yl}-5-methylnicotinamide] came in with a melting point of 238 to 240 °C.

The molecule `Cc1cc(-c2nc3cccnn3c2-c2ccnc(NC(=O)c3ccsc3)c2)ccc1F` [Example 42-32, N-{4-[2-(4-fluoro-3-methylphenyl)imidazo[1,2-b]pyridazin-3-yl]pyridin-2-yl}thiophene-3-carboxamide] showed a melting point of 217 to 218 °C.

`Cc1cc(-c2nc3cccnn3c2-c2ccnc(NC(=O)c3ccoc3)c2)ccc1F` [Example 42-33, N-{4-[2-(4-fluoro-3-methylphenyl)imidazo[1,2-b]pyridazin-3-yl]pyridin-2-yl}-3-furamide] showed a melting point of 199 to 200 °C.

Molecule `Cc1cc(-c2nc3cccnn3c2-c2ccnc(NC(=O)c3cnccn3)c2)ccc1F` [Example 42-34, N-{4-[2-(4-fluoro-3-methylphenyl)imidazo[1,2-b]pyridazin-3-yl]pyridin-2-yl}pyrazine-2-carboxamide] returned a melting point of 229 to 230 °C. As to `Cc1ccc(C(=O)Nc2nccc(-c3c(-c4cccc(C)c4)nc4cccnn34)n2)cc1` [Example 44-1, 4-methyl-N-{4-[2-(3-methylphenyl)imidazo[1,2-b]pyridazin-3-yl]pyrimidin-2-yl}benzamide], the melting point lay in the range of 211 to 212 °C. Consider `COc1ccc(C(=O)Nc2nccc(-c3c(-c4cccc(C)c4)nc4cccnn34)n2)cc1` [Example 44-2, 4-methoxy-N-{4-[2-(3-methylphenyl)imidazo[1,2-b]pyridazin-3-yl]pyrimidin-2-yl}benzamide], for which the melting point was 193 to 194 °C.

For `Cc1cccc(-c2nc3cccnn3c2-c2ccnc(NC(=O)c3ccncc3)n2)c1` [Example 44-3, N-{4-[2-(3-methylphenyl)imidazo[1,2-b]pyridazin-3-yl]pyrimidin-2-yl}isonicotinamide], the melting point fell in the range of 181 to 182 °C. `COc1ccc(C(=O)Nc2cc(-c3c(-c4cccc(C)c4)nc4ccc(N(C)C)nn34)ccn2)cc1` [Example 45-1, N-{4-[6-(dimethylamino)-2-(3-methylphenyl)imidazo[1,2-b]pyridazin-3-yl]pyridin-2-yl}-4-methoxybenzamide] displayed a melting point of 193 to 194 °C. As for `COc1ccc(C(=O)Nc2cc(-c3c(-c4ccc(F)c(C)c4)nc4ccc(N(C)C)nn34)ccn2)cc1` [Example 45-2, N-{4-[6-(dimethylamino)-2-(4-fluoro-3-methylphenyl)imidazo[1,2-b]pyridazin-3-yl]pyridin-2-yl}-4-methoxybenzamide], the melting point lay within 224 to 225 °C. The same measure for `CNc1ccc2nc(-c3ccc(F)c(C)c3)c(-c3ccnc(NC(=O)c4ccc(OC)cc4)c3)n2n1` [Example 46, N-{4-[2-(4-Fluoro-3-methylphenyl)-6-(methylamino)imidazo[1,2-b]pyridazin-3-yl]pyridin-2-yl}-4-methoxybenzamide]: 178 to 180 °C; for `CNC(=O)Nc1cc(-c2c(-c3ccc(F)c(C)c3)nc3cccnn23)ccn1` [Example 47-1, N-{4-[2-(4-fluoro-3-methylphenyl)imidazo[1,2-b]pyridazin-3-yl]pyridin-2-yl}-N′-methylurea]: 225 to 227 °C; for `Cc1cc(-c2nc3cccnn3c2-c2ccnc(NC(=O)NC(C)(C)C)c2)ccc1F` [Example 47-2, N-(tert-butyl)-N′-{4-[2-(4-fluoro-3-methylphenyl)imidazo[1,2-b]pyridazin-3-yl]pyridin-2-yl}urea]: 234 to 235 °C. For `CCC(C)NC(=O)Nc1cc(-c2c(-c3ccc(F)c(C)c3)nc3cccnn23)ccn1` (stereo not drawn) [Example 47-3, N-(sec-butyl)-N′-{4-[2-(4-fluoro-3-methylphenyl)imidazo[1,2-b]pyridazin-3-yl]pyridin-2-yl}urea] the value was 196 to 197 °C; for `Cc1cc(-c2nc3cccnn3c2-c2ccnc(NC(=O)NCCCCl)c2)ccc1F` [Example 47-4, N-(3-chloropropyl)-N′-{4-[2-(4-fluoro-3-methylphenyl)imidazo[1,2-b]pyridazin-3-yl]pyridin-2-yl}urea], 170 to 171 °C.

Turning to `Cc1cc(-c2nc3cccnn3c2-c2ccnc(NC(=O)Nc3ccc(C#N)cc3)c2)ccc1F` [Example 47-5, N-(4-cyanophenyl)-N′-{4-[2-(4-fluoro-3-methylphenyl)imidazo[1,2-b]pyridazin-3-yl]pyridin-2-yl}urea], the melting point lay within 204 to 206 °C. In the case of `Cc1cc(-c2nc3cccnn3c2-c2ccnc(NC(=O)Nc3ccsc3)c2)ccc1F` [Example 47-6, N-{4-[2-(4-fluoro-3-methylphenyl)imidazo[1,2-b]pyridazin-3-yl]pyridin-2-yl}-N′-3-thienylurea], the melting point lay in the range of 234 to 235 °C.
